# Tests used:
# [1] = test system: LNCaP cell line; settings: VEGF 10 ng/mL or 10 nM DHT for 3, 6, 12 and 24 hr, Western blot densitometry, P<0.05 vs control
# Description: In this example, to determine the responsiveness of Hexim-1 to androgen and VEGF in the epithelial prostate LNCap cell line, LNCap cells were treated with VEGF (10 ng/mL) or 10 nM dihydrotestosterone (DHT) for 3, 6, 12 and 24 hours, with the change in expression of Hexim-1 protein evaluated by Western blot.
# FIG. 2A illustrates the epithelial prostate LNCaP cell line which was treated with VEGF (10 ng/ml) or 10 nM dihydrotestosterone (DHT) 10 nM for 3, 6, 12 and 24 hr. Protein extracts were obtained from each time point and the changes in the protein expression of Hexim-1, p-Akt and GAPDH evaluated by Western blot. The histogram indicates the ratio between p-AKT and GAPDH and the ratio of Hexim-1 to GAPDH as obtained by densitometry analysis of the Western blots. Data are expressed as means±SE of 4 independent experiments.
# [2] = test system: PC3 cells; settings: androgen independent PC3 cells; 10 nM DHT for indicated times; Western blot
# Description: In FIG. 2B, PC3 cells were treated with 10 nM DHT for indicated times, cells were collected and cellular extracts were prepared and analyzed for Hexim-1 and GAPDH. The histogram indicates a ratio between Hexim-1 and GAPDH. Data are expressed as means±SE of 3 independent experiments.
# [3] = biological target: androgen receptor (AR) (UniProt P19091)
# UniProt P19091, sequence (P19091 whole entry): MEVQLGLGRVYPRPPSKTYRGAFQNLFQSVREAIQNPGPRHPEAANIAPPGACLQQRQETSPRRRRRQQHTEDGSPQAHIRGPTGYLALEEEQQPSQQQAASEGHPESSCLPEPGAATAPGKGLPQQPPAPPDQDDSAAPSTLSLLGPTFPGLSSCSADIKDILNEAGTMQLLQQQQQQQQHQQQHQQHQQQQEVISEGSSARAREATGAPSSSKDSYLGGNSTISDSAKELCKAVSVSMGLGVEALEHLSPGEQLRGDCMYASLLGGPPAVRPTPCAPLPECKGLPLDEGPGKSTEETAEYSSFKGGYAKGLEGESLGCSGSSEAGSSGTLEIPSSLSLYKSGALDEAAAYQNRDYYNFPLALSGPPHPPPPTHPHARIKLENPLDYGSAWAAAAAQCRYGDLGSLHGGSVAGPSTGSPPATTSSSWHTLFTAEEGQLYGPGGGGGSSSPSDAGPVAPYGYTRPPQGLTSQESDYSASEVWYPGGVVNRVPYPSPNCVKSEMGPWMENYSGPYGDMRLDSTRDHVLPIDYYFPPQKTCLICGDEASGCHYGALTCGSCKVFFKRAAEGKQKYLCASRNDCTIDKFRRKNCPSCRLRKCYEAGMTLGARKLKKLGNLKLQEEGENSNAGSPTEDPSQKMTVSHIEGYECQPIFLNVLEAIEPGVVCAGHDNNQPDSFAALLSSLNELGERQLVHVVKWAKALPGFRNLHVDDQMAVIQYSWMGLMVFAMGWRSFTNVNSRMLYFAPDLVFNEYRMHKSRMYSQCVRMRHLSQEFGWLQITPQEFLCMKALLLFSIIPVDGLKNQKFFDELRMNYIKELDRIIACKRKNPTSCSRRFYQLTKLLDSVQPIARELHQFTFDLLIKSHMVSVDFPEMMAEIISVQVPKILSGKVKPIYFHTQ
Compound,Hexim-1 protein levels (ratio of Hexim-1 to GAPDH) [1],p-Akt levels (ratio between p-AKT and GAPDH) [1],Hexim-1 levels (ratio between Hexim-1 and GAPDH) [2],serine-81 phosphorylation of the androgen receptor (Western blot after immunoprecipitation) [3]
"C[C@]12CCC(=O)C[C@@H]1CC[C@@H]1[C@@H]2CC[C@]2(C)[C@@H](O)CC[C@@H]12 [DHT, dihydrotestosterone]",induced,correlated with the increased Hexim-1 expression,not changed,
VEGF,induced,correlated with the increased Hexim-1 expression,,
cyclin dependent kinase 9 (Cdk9),,,,the serine phosphorylation of AR is significantly increased
